Assay results published in the supplement of paper PMC10307832.

How the values were obtained:
Experiment in all cases: relative viability (nuclei count vs DMSO), 5 days (fraction); higher = more cells survive
YM155 + Linsitinib = compound: COCC[n+]1c2c(n(Cc3cnccn3)c1C)C(=O)c1ccccc1C2=O [YM155] + C[C@]1(O)C[C@@H](c2nc(-c3ccc4ccc(-c5ccccc5)nc4c3)c3c(N)nccn32)C1 [Linsitinib] (partner 1 µM)
Summary of the method: (§1)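 Lung cancer cell lines were seeded in 1536-well plates and dosed by pin tool the next day, with either a single drug or a fixed anchor-drug dose combined with five library-drug doses (not always all listed) spaced in √10 steps. Five days later, one step fixed the cells and stained their nuclei (final 0.05% Triton X-100, 1% formaldehyde, 1 ug/ml Hoechst), and nuclei were counted on 4× images. Relative viability is the nuclei count in treated wells divided by the count in vehicle wells, and each value is the median of duplicate plates.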

Quizartinib + Phenformin = compound: CC(C)(C)c1cc(NC(=O)Nc2ccc(-c3cn4c(n3)sc3cc(OCCN5CCOCC5)ccc34)cc2)no1 [Quizartinib] + N=C(N)NC(=N)NCCc1ccccc1 [Phenformin] (partner 250 µM)
Summary of the method: as §1

Quizartinib + Decitabine = compound: CC(C)(C)c1cc(NC(=O)Nc2ccc(-c3cn4c(n3)sc3cc(OCCN5CCOCC5)ccc34)cc2)no1 [Quizartinib] + Nc1ncn([C@H]2C[C@H](O)[C@@H](CO)O2)c(=O)n1 [Decitabine] (partner 2 µM)
Summary of the method: as §1

Quizartinib + Luminespib = compound: CC(C)(C)c1cc(NC(=O)Nc2ccc(-c3cn4c(n3)sc3cc(OCCN5CCOCC5)ccc34)cc2)no1 [Quizartinib] + CCNC(=O)c1noc(-c2cc(C(C)C)c(O)cc2O)c1-c1ccc(CN2CCOCC2)cc1 [Luminespib] (partner 0.01 µM)
Summary of the method: as §1

Row | Cell Line | relative viability (YM155 + Linsitinib; first compound 0.002 µM) | relative viability (YM155 + Linsitinib; first compound 0.006325 µM) | relative viability (YM155 + Linsitinib; first compound 0.02 µM) | relative viability (YM155 + Linsitinib; first compound 0.06325 µM) | relative viability (Quizartinib + Phenformin; first compound 0.001 µM) | relative viability (Quizartinib + Phenformin; first compound 0.003162 µM) | relative viability (Quizartinib + Phenformin; first compound 0.01 µM) | relative viability (Quizartinib + Phenformin; first compound 0.03162 µM) | relative viability (Quizartinib + Phenformin; first compound 0.1 µM) | relative viability (Quizartinib + Decitabine; first compound 0.001 µM) | relative viability (Quizartinib + Decitabine; first compound 0.003162 µM) | relative viability (Quizartinib + Decitabine; first compound 0.01 µM) | relative viability (Quizartinib + Decitabine; first compound 0.1 µM) | relative viability (Quizartinib + Luminespib; first compound 0.001 µM) | relative viability (Quizartinib + Luminespib; first compound 0.003162 µM) | relative viability (Quizartinib + Luminespib; first compound 0.01 µM) | relative viability (Quizartinib + Luminespib; first compound 0.03162 µM) | relative viability (Quizartinib + Luminespib; first compound 0.1 µM) | relative viability (Quizartinib + Decitabine; first compound 0.03162 µM)
1 | NCI-H358 | 0.708 | 0.689 | 0.778 | 0.253 | 0.292 | 0.4 | 0.327 | 0.115 | 0.299 | 0.194 | 0.209 | 0.232 | 0.192 | 0.224 | 0.359 | 0.309 | 0.475 | 0.228 | 
2 | NCI-H441 | 0.461 | 0.486 | 0.557 | 0.353 | 0.831 | 0.807 | 0.787 |  | 0.958 | 0.236 | 0.247 | 0.213 | 0.278 | 0.352 | 0.369 | 0.339 |  | 0.362 | 0.238
3 | NCI-H460 | 0.778 | 0.936 | 0.735 | 0.517 | 0.379 | 0.48 | 0.587 | 0.0822 | 0.028 |  | 0.454 | 0.613 | 0.459 | 0.0338 | 0.0373 | 0.0292 | 0.0246 | 0.0321 | 
4 | NCI-H520 | 0.895 | 1.13 | 1.04 | 0.957 | 0.582 | 0.526 | 0.532 | 0.357 | 0.35 |  | 0.449 | 0.501 | 0.462 | 0.232 | 0.201 | 0.207 | 0.333 | 0.255 | 0.542
5 | NCI-H596 |  | 1.05 | 1.07 | 1.07 | 0.834 | 0.681 | 0.712 | 0.667 | 0.714 | 1.03 | 0.938 | 1.09 | 0.901 | 0.922 | 0.884 | 1.02 | 0.852 | 0.888 | 0.993
6 | NCI-H647 | 1.11 | 1.37 | 0.996 | 0.857 | 0.463 | 0.591 | 0.569 | 0.453 | 0.514 | 0.32 | 0.369 | 0.437 | 0.549 | 0.174 | 0.155 | 0.213 | 0.327 | 0.189 | 0.405
7 | NCI-H650 | 0.721 | 0.857 | 0.966 | 0.784 | 0.433 | 0.454 | 0.409 | 0.399 | 0.476 | 0.319 | 0.286 | 0.342 | 0.384 | 0.7 | 0.762 | 0.91 | 0.68 | 0.718 | 0.365
8 | NCI-H661 | 0.697 | 0.699 | 0.54 | 0.598 | 0.274 | 0.289 | 0.3 | 0.224 | 0.194 | 0.55 | 0.5 | 0.577 | 0.599 | 0.921 | 0.899 | 0.929 | 0.905 | 0.9 | 0.561
9 | NCI-H727 | 0.28 | 0.321 | 0.28 | 0.364 |  | 0.514 | 0.584 | 0.52 | 0.469 | 0.781 | 0.829 | 0.933 | 1.29 |  | 0.443 | 0.41 | 0.665 | 0.309 | 0.831
10 | NCI-H838 | 0.935 | 0.997 | 1.03 | 0.485 | 0.442 | 0.692 | 0.498 | 0.607 | 0.329 | 0.418 | 0.48 | 0.478 | 0.388 | 0.203 | 0.207 | 0.329 | 0.281 | 0.234 | 0.466
11 | NCI-H1355 | 0.821 | 0.832 | 0.948 | 0.875 | 0.426 | 0.434 | 0.437 | 0.426 | 0.415 | 0.346 | 0.349 | 0.338 | 0.36 | 0.814 | 0.689 | 0.721 | 0.68 | 0.725 | 0.331
12 | NCI-H1395 | 1.11 | 0.889 | 1.09 | 1.14 | 0.437 | 0.447 | 0.46 | 0.468 | 0.494 | 0.718 | 0.74 | 0.728 | 0.774 | 0.68 | 0.52 | 0.841 | 0.71 | 0.69 | 0.718
13 | NCI-H1437 | 0.994 | 1.05 | 0.989 | 0.878 | 0.274 | 0.277 | 0.294 | 0.208 | 0.172 | 0.402 | 0.54 | 0.567 | 0.499 | 1.01 | 1.07 | 1.09 | 0.782 | 0.982 | 0.536
14 | NCI-H1651 | 1.04 | 0.94 | 1 | 0.642 | 0.41 | 0.268 | 0.35 | 0.231 | 0.272 | 0.626 | 0.642 | 0.667 | 0.626 | 0.811 | 0.794 | 0.913 | 0.599 | 0.92 | 0.612
15 | NCI-H1666 | 0.88 |  | 1.01 | 0.578 | 0.581 | 0.433 | 0.569 | 0.568 | 0.54 | 0.649 | 0.723 | 0.777 | 0.783 | 0.977 | 1.05 | 1.02 | 0.789 | 1.03 | 0.717
16 | NCI-H1734 | 0.916 | 0.811 | 0.889 | 0.979 | 0.3 | 0.338 | 0.48 | 0.391 | 0.387 | 0.504 | 0.459 | 0.656 | 0.485 | 0.16 | 0.257 | 0.188 | 0.178 | 0.197 | 0.499
